Laboratory results published in patent publication US7176199B2, “Aryl-substituted alicyclic compound and medical composition comprising the same” (Dainippon Pharmaceutical Co., Ltd., priority 2001, dated 2007).

Tests used:
αvβ3 integrin = αvβ3 integrin (Homo sapiens, UniProt P05106+P06756); assay: Assay for the inhibition of αvβ3 integrin binding (vitronectin as ligand); design: purchased Chemicon International, Inc., USA; settings: inhibition of specific binding of biotinylated human vitronectin to immobilized αvβ3 integrin
αvβ3 integrin, sequence (P06756 31-889 limits assumed): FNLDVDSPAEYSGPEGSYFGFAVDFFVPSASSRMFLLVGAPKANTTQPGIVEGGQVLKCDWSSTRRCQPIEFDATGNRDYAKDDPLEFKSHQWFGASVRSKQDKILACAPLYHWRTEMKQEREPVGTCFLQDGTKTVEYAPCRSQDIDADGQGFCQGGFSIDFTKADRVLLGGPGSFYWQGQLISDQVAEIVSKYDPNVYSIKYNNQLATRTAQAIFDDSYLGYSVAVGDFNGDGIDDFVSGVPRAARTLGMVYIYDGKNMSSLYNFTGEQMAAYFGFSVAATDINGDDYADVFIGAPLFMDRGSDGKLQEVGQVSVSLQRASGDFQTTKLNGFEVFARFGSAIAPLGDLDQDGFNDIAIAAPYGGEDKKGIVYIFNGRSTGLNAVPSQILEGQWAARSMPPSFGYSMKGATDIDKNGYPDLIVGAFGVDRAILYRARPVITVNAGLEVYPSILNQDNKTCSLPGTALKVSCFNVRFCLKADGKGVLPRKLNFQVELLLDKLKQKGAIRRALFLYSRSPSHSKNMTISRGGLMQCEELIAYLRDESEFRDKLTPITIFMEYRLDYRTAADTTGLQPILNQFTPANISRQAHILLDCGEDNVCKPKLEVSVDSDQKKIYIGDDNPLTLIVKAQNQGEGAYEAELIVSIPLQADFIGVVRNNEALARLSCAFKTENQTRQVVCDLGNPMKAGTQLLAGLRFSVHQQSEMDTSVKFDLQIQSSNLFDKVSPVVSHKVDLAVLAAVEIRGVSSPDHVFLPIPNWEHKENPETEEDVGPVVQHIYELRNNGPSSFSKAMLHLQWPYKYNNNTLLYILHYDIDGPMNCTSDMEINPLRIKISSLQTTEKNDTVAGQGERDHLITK
αvβ3 integrin, sequence (P06756 891-1048 partner limits assumed): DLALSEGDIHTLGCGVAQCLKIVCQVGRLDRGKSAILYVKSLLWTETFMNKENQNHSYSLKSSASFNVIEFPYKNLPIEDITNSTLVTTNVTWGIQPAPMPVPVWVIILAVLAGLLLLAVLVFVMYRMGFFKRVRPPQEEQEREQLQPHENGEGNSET
αvβ3 integrin, sequence (P05106 27-788): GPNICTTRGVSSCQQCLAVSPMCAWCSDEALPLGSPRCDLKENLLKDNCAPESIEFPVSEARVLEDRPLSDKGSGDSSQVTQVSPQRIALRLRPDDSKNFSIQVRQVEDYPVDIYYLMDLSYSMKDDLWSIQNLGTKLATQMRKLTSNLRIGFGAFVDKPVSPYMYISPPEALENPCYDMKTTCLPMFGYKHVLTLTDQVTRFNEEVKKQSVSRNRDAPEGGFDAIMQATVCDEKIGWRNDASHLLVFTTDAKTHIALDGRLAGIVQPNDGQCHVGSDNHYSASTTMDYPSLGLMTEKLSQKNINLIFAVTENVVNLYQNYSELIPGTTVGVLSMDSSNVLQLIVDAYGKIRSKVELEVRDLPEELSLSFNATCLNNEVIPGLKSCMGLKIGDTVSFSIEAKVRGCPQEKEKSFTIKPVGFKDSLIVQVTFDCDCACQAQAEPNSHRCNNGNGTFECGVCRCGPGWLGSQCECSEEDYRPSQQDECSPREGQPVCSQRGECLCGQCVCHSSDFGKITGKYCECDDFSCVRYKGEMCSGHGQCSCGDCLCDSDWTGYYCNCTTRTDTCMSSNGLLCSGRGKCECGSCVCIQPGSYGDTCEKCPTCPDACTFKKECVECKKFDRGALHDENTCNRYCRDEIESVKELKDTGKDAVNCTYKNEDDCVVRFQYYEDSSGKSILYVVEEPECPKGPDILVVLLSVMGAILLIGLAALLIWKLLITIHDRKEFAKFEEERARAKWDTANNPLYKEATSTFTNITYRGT
Method: Experiment 1: Assay for the Inhibition of αvβ3 integrin binding
This experiment was carried out based on the method described in […].
Purified human αvβ3 integrin (Chemicon International, Inc., USA) was adjusted to a concentration of 1 μg/ml with TBS^++ [20 mM Tris-HCl (pH 7.4), 150 mM NaCl, 1 mM CaCl2, 1 mM MgCl2], and the diluted solution was added to plates (Labsystems, Finland) at 50 μl/well. The plate was left at 4° C. overnight for immobilization of the αvβ3 integrin. All subsequent steps were done at 25° C., and the procedure for each well was described hereafter.
The solution was discarded, and then 200 μl of TBS^++ containing 1% BSA (Wako Pure Chemical Industries, Ltd., Japan) was added to the well and left for one hour for blocking. The well was washed with a wash solution (TBS^++ containing 0.01% Tween 20) 4 times, and 50 μl of a reaction solution (TBS^++ containing 0.1% BSA and 0.01% Tween 20) was added to the well. Subsequently, 25 μl of a test compound solution adjusted to each concentration with the reaction solution was added, and then mixed with 25 μl of biotinylated (Amersham Pharmacia Biotech, UK) human vitronectin (Gibco BRL, USA) adjusted to 0.4 μg/ml with the reaction solution. The mixture was reacted for 2 hours. After washing 4 times with the wash solution, 100 μl of peroxidase-labeled streptoavidin (Amersham Pharmacia Biotech, UK) diluted 1:500 with the reaction solution was added to the well. Following 30 minutes reaction, the well was washed 4 times with the wash solution, and 100 μl of a TMB substrate solution (Bio-Rad Laboratories, USA) was added to the well. Color was developed for 20 minutes and the reaction was stopped by adding 100 μl of 0.5 M sulfuric acid.
(§1) The absorbance at 450 nm was measured with a plate reader (Molecular Devices, USA) to obtain a total binding. To obtain a nonspecific binding, EDTA adjusted to 20 mM with the reaction solution was added instead of the test compound solution. A specific binding was calculated by subtracting the nonspecific binding from the total binding.

αIIbβ3 integrin = target: T1, αIIbβ3 integrin (Homo sapiens, UniProt P05106+P08514); assay: Assay for the inhibition of αIIbβ3 integrin binding (fibrinogen as ligand, integrin captured from platelet lysate); settings: inhibition of specific binding of biotinylated fibrinogen to αIIbβ3 integrin from human platelet lysate
T1 construct: from tissue; host or cells: human platelets (Triton X-100 lysate)
T1 sequence (P08514 32-887 limits assumed): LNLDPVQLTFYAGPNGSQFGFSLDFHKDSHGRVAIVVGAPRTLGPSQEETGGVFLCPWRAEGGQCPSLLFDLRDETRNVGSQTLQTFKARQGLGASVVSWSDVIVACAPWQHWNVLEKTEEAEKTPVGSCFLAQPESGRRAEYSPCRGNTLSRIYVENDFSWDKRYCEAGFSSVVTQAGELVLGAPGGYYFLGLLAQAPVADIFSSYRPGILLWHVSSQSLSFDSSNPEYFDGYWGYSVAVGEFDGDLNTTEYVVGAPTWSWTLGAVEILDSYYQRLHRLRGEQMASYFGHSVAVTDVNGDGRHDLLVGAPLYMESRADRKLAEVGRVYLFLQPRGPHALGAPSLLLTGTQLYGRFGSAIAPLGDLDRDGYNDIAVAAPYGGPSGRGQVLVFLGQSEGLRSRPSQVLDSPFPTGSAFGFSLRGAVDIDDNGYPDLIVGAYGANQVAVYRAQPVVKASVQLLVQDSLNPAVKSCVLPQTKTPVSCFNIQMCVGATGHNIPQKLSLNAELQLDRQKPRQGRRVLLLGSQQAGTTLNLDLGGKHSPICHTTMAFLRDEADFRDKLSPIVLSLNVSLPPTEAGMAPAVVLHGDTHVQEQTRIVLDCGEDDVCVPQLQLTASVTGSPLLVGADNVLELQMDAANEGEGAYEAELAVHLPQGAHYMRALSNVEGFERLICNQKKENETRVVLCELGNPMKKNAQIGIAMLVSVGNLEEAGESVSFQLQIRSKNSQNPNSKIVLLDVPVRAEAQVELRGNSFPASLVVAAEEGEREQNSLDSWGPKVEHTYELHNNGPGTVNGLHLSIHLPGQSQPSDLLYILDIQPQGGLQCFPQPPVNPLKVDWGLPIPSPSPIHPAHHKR
T1 sequence (P08514 891-1039 partner limits assumed): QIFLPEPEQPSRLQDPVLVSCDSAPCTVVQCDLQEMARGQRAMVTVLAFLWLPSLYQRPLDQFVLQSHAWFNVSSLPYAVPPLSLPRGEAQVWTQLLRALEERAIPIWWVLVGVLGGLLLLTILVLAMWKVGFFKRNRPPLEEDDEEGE
T1 sequence (P05106 27-788): as the sequence (P05106 27-788) above
Method: Experiment 2: Assay for the Inhibition of αIIbβ3 Integrin Binding
This experiment was carried out based on the method described in Thromb. Haemostasis, 75, 339 (1996), Blood, 93, 2559 (1999), using fibrinogen as a ligand. According to the method described in the above literatures, assay for the inhibition of αIIbβ3 integrin binding can be achieved by capturing αIIbβ3 integrin from platelet lysate with the use of an activated antibody against αIIbβ3 integrin.
Human platelets were isolated in a conventional manner. At 25° C., the isolated platelets were adjusted to a concentration of 1.25×10^9/ml with TBS+[50 mM Tris-HCl (pH 7.4), 150 mM NaCl, 2 mM CaCl2], and then ⅛ volume of TBS^+ containing 2 mM leupepsin and 10 mM PMSF was added and stirred gently. Nest, 1/9 volume of TBS+ containing 10% Triton X-100 was added and stirred gently. After standing on ice for 30 minutes, a platelet lysate was prepared from the mixture by discarding the insoluble fraction with centrifugation (10,000 g, 15 minutes).
Anti-mouse IgG goat antibody (Jackson Immunoresearch Laboratories, Inc., USA) was adjusted to a concentration of 5 μg/ml with sodium carbonate buffer (pH 9.6) and added to plates at 50 μl/well. The plate was left at 4° C. overnight for immobilization of the antibody. All subsequent steps were done at 25° C., and the procedure for each well was described hereafter.
The well was washed once with TBS^+, and then 200 μl of TBS^+ containing 5% BSA was added to the well and left for one hour for blocking. The well was washed with a reaction solution (TBS^+ containing 0.1% BSA and 0.05% Triton X-100) 4 times, and then 50 μl of anti-human αIIbβ3 integrin activated monoclonal antibody (TAKARA SHUZO CO., LTD, Japan, PT25-2 strain) adjusted to 5 μg/ml with the reaction solution was added to the well. After one hour reaction, the well was washed 4 times with the reaction solution, and 50 μl of the platelet lysate diluted 1:2 with the reaction solution was added to the well. Following 2 hours reaction, the well was washed 4 times with the reaction solution, and 50 μl of the reaction solution was added to the well. Subsequently, 25 μl of a test compound solution adjusted to each concentration with the reaction solution was added, and then mixed with 25 μl of biotinylated fibrinogen (Calbiochem, Germany) adjusted to 2 μg/ml with the reaction solution. The mixture was reacted for one hour. After washing 4 times with the reaction solution, 100 μl of alkaline phosphatase-labeled streptoavidin (Gibco BRL, USA) diluted 1:500 with the reaction solution was added to the well. Following 30 minutes reaction, the well was washed 4 times with the wash solution. Next, 50 μl of the NaDPH solution (Invitrogen, former company name: Gibco BRL, USA) was added and reacted for 20 minutes, and then 50 μl of an amplification solution containing diaphorase and alcohol dehydrogenase (Invitrogen, former company name: Gibco BRL, USA) was added. Color was developed for 20 minutes and the reaction was stopped by adding 50 μl of 0.5 M sulfuric acid.
as §1, with “495” for “450”, “reader” for “reader (Molecular Devices, USA)”

Row | IC50 (αvβ3 integrin) [nM] | IC50 (αIIbβ3 integrin) [nM] | SMILES
1 | 0.094 | 380 | CCOC(=O)N[C@@H](CNC(=O)C1CCN(c2cccc(NC3=NCCCN3)c2)CC1)C(=O)O [Ex. 86, (2S)-2-ethoxycarbonylamino-3-[[1-[3-(1,4,5,6-tetrahydropyrimidin-2-yl)aminophenyl]piperidin-4-yl]carbonylamino]propanoic acid]
2 | 0.051 | 26 | CCCCCCOC(=O)N[C@@H](CNC(=O)C1CCN(c2cccc(NC3=NCCCN3)c2)CC1)C(=O)O [Ex. 88, (2S)-2-hexyloxycarbonylamino-3-[[1-[3-(1,4,5,6-tetrahydropyrimidin-2-yl)aminophenyl]piperidin-4-yl]carbonylamino]propanoic acid]
3 | 0.1 | 96 | CCCCCCCCOC(=O)N[C@@H](CNC(=O)C1CCN(c2cccc(NC3=NCCCN3)c2)CC1)C(=O)O [Ex. 89, (2S)-2-octyloxycarbonylamino-3-[[1-[3-(1,4,5,6-tetrahydropyrimidin-2-yl)aminophenyl]piperidin-4-yl]carbonylamino]propanoic acid]
4 | 0.23 | 260 | CCCCCCCCCCOC(=O)N[C@@H](CNC(=O)C1CCN(c2cccc(NC3=NCCCN3)c2)CC1)C(=O)O [Ex. 90, (2S)-2-decyloxycarbonylamino-3-[[1-[3-(1,4,5,6-tetrahydropyrimidin-2-yl)aminophenyl]piperidin-4-yl]carbonylamino]propanoic acid]
5 | 0.2 | 150 | CC(C)(C)COC(=O)N[C@@H](CNC(=O)C1CCN(c2cccc(NC3=NCCCN3)c2)CC1)C(=O)O [Ex. 93, (2S)-2-neopentyloxycarbonylamino-3-[[1-[3-(1,4,5,6-tetrahydropyrimidin-2-yl)aminophenyl]piperidin-4-yl]carbonylamino]propanoic acid]
6 | 0.21 | 60 | COCCOC(=O)N[C@@H](CNC(=O)C1CCN(c2cccc(NC3=NCCCN3)c2)CC1)C(=O)O [Ex. 94, (2S)-2-(2-methoxyethoxycarbonylamino)-3-[[1-[3-(1,4,5,6-tetrahydropyrimidin-2-yl)aminophenyl]piperidin-4-yl]carbonylamino]-propanoic acid]
7 | 0.08 | 60 | C=CCOC(=O)N[C@@H](CNC(=O)C1CCN(c2cccc(NC3=NCCCN3)c2)CC1)C(=O)O [Ex. 96, (2S)-2-allyloxycarbonylamino-3-[[1-[3-(1,4,5,6-tetrahydropyrimidin-2-yl)aminophenyl]piperidin-4-yl]carbonylamino] propanoic acid]
8 | 0.35 | 88 | CCCCCCNC(=O)N[C@@H](CNC(=O)C1CCN(c2cccc(NC3=NCCCN3)c2)CC1)C(=O)O [Ex. 117, (2S)-2-hexylaminocarbonylamino-3-[[1-[3-(1,4,5,6-tetrahydropyrimidin-2-yl)aminophenyl]piperidin-4-yl]carbonylamino]propanoic acid]
9 | 0.16 | 720 | O=C(N[C@@H](CCC(=O)N1CCN(c2cccc(NC3=NCCN3)c2)CC1)C(=O)O)OCc1ccccc1 [Ex. 122]
10 | 0.056 | 1600 | O=C(N[C@@H](CCC(=O)N1CCN(c2cccc(NC3=NCCCCN3)c2)CC1)C(=O)O)OCc1ccccc1 [Ex. 123]
11 | 0.063 | 540 | O=C(N[C@@H](CCC(=O)N1CCN(c2cccc(NC3=NCC(F)CN3)c2)CC1)C(=O)O)OCc1ccccc1 (stereo partly drawn) [Ex. 124, (2S)-2-benzyloxycarbonylamino-5-[4-[3-(5-fluoro-1,4,5,6-tetrahydropyrimidin-2-yl)aminophenyl]piperazin-1-yl]-5-oxopentanoic acid]
12 | 0.15 | 340 | O=C(N[C@@H](CCC(=O)N1CCN(c2cccc(NC3=NCC(O)CN3)c2)CC1)C(=O)O)OCc1ccccc1 (some centres unmarked) [Ex. 125]
13 | 0.058 | > 1000 | CCCCCCOC(=O)N[C@@H](CCC(=O)N1CCN(c2cccc(NC3=NCC(F)CN3)c2)CC1)C(=O)O (stereo partly drawn) [Ex. 130, (2S)-2-hexyloxycarbonylamino-5-[4-[3-(5-fluoro-1,4,5,6-tetrahydropyrimidin-2-yl)aminophenyl]piperazin-1-yl]-5-oxopentanoic acid]
14 | 0.3 | 57 | CCCCCCOC(=O)N[C@@H](CCC(=O)N1CCN(c2cccc(NC3=NCC(O)CN3)c2)CC1)C(=O)O (some centres unmarked) [Ex. 131]
15 | 1.7 | > 1000 | CCCCCCCCCCOC(=O)N[C@@H](CCC(=O)N1CCN(c2cccc(NC3=NCC(C)(C)CN3)c2)CC1)C(=O)O [Ex. 132]
16 | 0.26 | > 1000 | CCCCCCCCCCOC(=O)N[C@@H](CCC(=O)N1CCN(c2cccc(NC3=NCC(F)CN3)c2)CC1)C(=O)O (some centres unmarked) [Ex. 133]
17 | 0.64 | > 1000 | CCCCCCCCCCOC(=O)N[C@@H](CCC(=O)N1CCN(c2cccc(NC3=NCC(O)CN3)c2)CC1)C(=O)O (some centres unmarked) [Ex. 134]
18 | 0.74 | > 1000 | CCCCCCCCCCOC(=O)N[C@@H](CCC(=O)N1CCN(c2cccc(NC3=NCC(C)CN3)c2)CC1)C(=O)O (some centres unmarked) [Ex. 135]
19 | 0.28 | 880 | CCCCCCOC(=O)N[C@@H](CCC(=O)N1CCN(c2cccc(NC3=NCCCN3)c2)CC1)C(=O)O [Ex. 137, (2S)-2-hexyloxycarbonylamino-5-[4-[3-(1,4,5,6-tetrahydropyrimidin-2-yl)aminophenyl]piperazin-1-yl]-5-oxopentanoic acid]
20 | 0.22 | 30 | Cc1cc(C)c(S(=O)(=O)N[C@@H](CCC(=O)N2CCN(c3cccc(NC4=NCCCN4)c3)CC2)C(=O)O)c(C)c1 [Ex. 140]

Row | SMILES | IC50 (αvβ3 integrin) [nM] | IC50 (αIIbβ3 integrin) [nM]
21 | CCCCOC(=O)N[C@@H](CNC(=O)C1CCN(c2cccc(NC3=NCCCN3)c2)CC1)C(=O)O [Ex. 87, (2S)-2-butoxycarbonylamino-3-[[1-[3-(1,4,5,6-tetrahydropyrimidin-2-yl)aminophenyl]piperidin-4-yl]carbonylamino]propanoic acid] | 0.1 | 110
22 | CC(C)COC(=O)N[C@@H](CNC(=O)C1CCN(c2cccc(NC3=NCCCN3)c2)CC1)C(=O)O [Ex. 92, (2S)-2-isobutoxycarbonylamino-3-[[1-[3-(1,4,5,6-tetrahydropyrimidin-2-yl)aminophenyl]piperidin-4-yl]carbonylamino]propanoic acid] | 0.066 | 72
